Assay results as given in patent US8883841B2, “Oncogenic ras-specific cytotoxic compound and methods of use thereof” (The Board of Regents of the University of Texas System, priority 2005, dated 2014).
Entries after “also recorded” stand apart in the source; their conditions may differ.

Assays:
[1] = tested on: caspase-3 and caspase-8; assay: Western blot for cleavage/activation of caspase-3 and caspase-8 in H460 cells; type: cell-based, human; conditions: 1 μM, 6 to 24 h, listed as Oncrasin-1
Protocol: Apoptosis induction in H460 cells was also analyzed. H460 cells were treated with 1 μM of Oncrasin-1 for 6 to 24 h. Cells treated with DMSO were used as controls. The cell lysates were then used for a western blot assay to detect the cleavage of caspase-3 and caspase-8. […] After treatment with Oncrasin-1, the expression of some molecules involved in Ras signaling pathways was also evaluated. […] Active Raf-1 can be translocated to mitochondria where it executes antiapoptosis signaling by interaction with Bad or other protein substrates. Raf-1 is also a pivotal regulator of endothelial cell survival during angiogenesis. Ablation of Raf-1 renders cells hypersensitive to apoptosis despite normal regulation of extracellular signal-regulated kinases. Thus, it is possible to induce antitumor activity by suppressing raf-1.
Induction of apoptosis by Oncrasin. Many antitumor therapies act by inducing apoptosis in tumor cells (Fisher, 1994; Thompson, 1995). To determine whether the antitumor activity of Oncrasin-1 is due to the suppression of cell proliferation or to cell killing, T29, T29Kt1, and H460 cells were stained with annexin V/propidium iodide (PI) after treatment with Oncrasin-1 at 30 μM (for T29 or T29Kt1 cells) or 3 μM (for H460 cells). […]

[2] = tested on: phosphorylated PKCiota; assay: Western blot analysis of phosphorylated PKCiota; type: cell-based, human; conditions: 12 h
Protocol: Ras Signaling Pathway and Molecular Mechanisms of Oncrasin-induced apoptosis. To investigate molecular mechanisms of apoptosis induction by Oncrasin compounds, levels several proteins that are involved in apoptosis and/or involved in Ras signaling pathways were determined, including Bax, Bik, Bc12, Bcl-XL, Raf-1, B-Raf, Akt, Mst1 and atypical protein kinase C (aPKC) zeta and PKCiota. To study which molecules are affected by Oncrasin treatment, T29, T29Kt1 and H460 cells were treated with Oncrasin-1 at an optimal concentration, around IC60 to IC80 for T29Kt1 and H460 cells. Cell lysates were collected 12 h after the treatment and subjected to Western blot analysis.

[3] = tested on: Raf-1, Akt, PKCzeta, PKCdelta, and p53; assay: Immunohistochemical staining, subcellular localization of Raf-1, Akt, PKCzeta, PKCdelta, p53; type: cell-based, human; conditions: T29Kt1 or H460 cells, 12 h
Protocol: Effects on subcellular localization of PKCiota. […] To further investigate molecular mechanisms of Oncrasin action the inventors studied the subcellular localization of several molecules involved in Ras-signaling pathway because the functions of Ras and other proteins are directly related to their subcellular localizations. For this purpose, T29Kt1 or H460 cells were seeded on cover glass slides and treated with DMSO or Oncrasin-1 for 12 h. Cells were then fixed with paraformaldehyde, permeabilized with Triton X-100 and stained with various antibodies for immunohistochemical examination. […] Nevertheless, substantial subcellular localization change was detected for PKCiota after Oncrasin-1 treatment (FIG. 6). In both H460 and T29Kt1 cells, both PKCiota and PKCzeta were diffusely distributed in cells with high concentration on cell membrane in nucleus, consisting with previous reports that aPKC contains both nuclear localization signal (NLS) and nuclear export signal (NES), and can shuttle between cytoplasm and nucleus, which was regulated by intramolecular conformational changes, phosphorylation or by treatment with growth factors (Perander et al., 2001; White et al., 2002; Neri et al., 1999). […] Such aggregation of PKCiota was not observed in Oncrasin-resistant T29 and H1299 cells. […]

[4] = tested on: H460 cells transfected with Raf-1 constructs; assay: SRB cell viability of H460 cells stably transfected with Raf-1 plasmids; type: cell-based, human; conditions: vs parental H460
Protocol: FIGS. 10A-10D Effect of Oncrasin-1 on Raf-1 expression. (FIG. 10A) H460 cells were treated with various concentrations of Oncrasin-1 and harvested 24 h later for Western blot analysis. (FIG. 10B) Reverse transcriptase-based polymerase chain reaction (RT-PCR) assay. H460 cells treated with 1 μM Oncrasin-1 for various times or at various concentrations for 24 h, as indicated. (+, −, positive and negative controls). […] (FIG. 10D) Dose effects of Oncrasin-1 on stable cell lines transfected with Raf-1 plasmids. Parental H460 cells and H460 cells transfected with wild-type Raf-1 (Raf-1), constitutive Raf-1 (Raf-1C), or dominant-negative Raf-1 Raf-1/DN) were treated with various concentrations of Oncrasin-1, and cell viability was determined by SRB assay.
Suppression of Raf-1 expression by Oncrasin-1. […] To elucidate the roles of Raf-1 in Oncrasin-induced apoptosis, the inventors evaluated the expression of Raf-1 in H460 cells after treatment with different concentrations of Oncrasin-1. […] Because Raf-1 executes anti-apoptosis function via a variety of pathways. […] However, the resistance to Oncrasin-1 was more prominent in the constitutively active Raf-1-transfected cells than in cells with the wild-type Raf-1 (FIG. 10C and FIG. 10D).

[5] = tested on: RNA transcription (HeLa cell nuclear extracts); assay: In vitro transcription assay with HeLa nuclear extracts; type: biochemical
Protocol: FIGS. 16A and 16B Effect on RNA processing machinary. (FIG. 16A) T29, T29Kt1, and H460 cells were treated with 10 μM Oncrasin-1 (T29 and T29Kt1) or 1 μM Oncrasin-1 (H460). Twelve hours later, cells were harvested for Western blot analysis for phosphorylation of RNA polymerase II and SR proteins. Cells treated with DMSO were used as control (C). (T) cells treated with Oncrasin-1. Arrows indicate reduced phosphorylation of the polymerase II (pPolII) and SR proteins (pSR) (FIG. 16B) In vitro transcription assay with HeLa cell nuclear extracts (Promoega). The assay was performed following manufacturers instructions. The concentrations used are indicated on the top of the panel. DRB was used as positive control for transcription inhibition.
To further test the role of RNA transcription and splicing in Oncrasin-mediated antitumor activity the phosphorylation of the largest subunit of RNA polymerase II and splicing factors were analyzed. T29, T29Kt1 and H460 cells were treated with Oncrasin-1 at an optimal concentration, around IC60 to IC80 for T29Kt1 and H460 cells. Cell lysates were collected 12 h after the treatment and subjected to Western blot analysis with antibodies specific for phosphorylated RNA polymerase If (H5, Covance Research Products, Inc., Berkeley, Calif.) and SR proteins (1H4, Zymed, obtained from Invitrogen, Carlsbad, Calif.).

[6] = tested on: T29Ht1 cells

In the case of O=Cc1cn(Cc2ccc(Cl)cc2)c2ccccc12 [Oncrasin K001, 1H-Indole-3-carboxaldehyde, 1-[(4-chlorophenyl)methyl]-(9CI)], the “activation of caspase-3 and caspase-8” value [1] is reported as “effectively activated caspase-3 and caspase-8; also recorded: Activation of caspase-3 and caspase-8 was detected; also recorded: effectively induce caspase-3 and caspase-8 activation”, the “phosphorylated PKCiota in H460 and T29K cells” value [2] is reported as “increase in phosphorylated PKCiota” and the “phosphorylated PKCiota in T29 cells” value [2] is reported as “but not in Oncrasin-1 resistant T29 cells”. The “subcellular localization of Raf-1, Akt, PKCzeta, PKCdelta, and p53” value [3] was “did not induce obvious changes”, the “susceptibility of H460 cells transfected with dominant-negative Raf-1” value [4] was “more sensitive” and the “susceptibility of H460 cells transfected with wild-type or constitutively active Raf-1” value [4] was “less susceptible than parental H460 cells”. The “in vitro RNA transcription” value [5] was “does not inhibit in vitro RNA transcription directly”, the “toxicity to T29H cells” value ([6]; at 33 μM (the highest concentration tested)) was “not toxic” and the “toxicity to T29Ht1 (T29H) cells” value ([6]; at any of the doses tested (dose response)) was “not toxic”. For the same compound, the “cytotoxicity in T29Ht1 cells” value ([6]; up to 100 μM, the highest concentration tested) was “no detectable cytotoxicity”.
